Data: patent publication US20260373132A1, “PERK INHIBITORHC-5404 IN COMBINATION WITH ANTI-PD-1 ANTIBODY AND/OR AN ANTIANGIOGENETIC AGENT FOR USE IN THE TREATMENT OF CANCER” (HIBERCELL, INC., priority 2022, published 2026)

Tests used:
RIOK2 = RIOK2 (Homo sapiens, UniProt Q9BVS4); assay: KINOMEScan biochemical panel assay, RIOK2; assay type: binding; settings: 1000 nM
Procedure: The selectivity of HC-5404 against the broader kinome was then evaluated using a KINOMEScan biochemical panel assay that measured binding against 468 unique kinases, including 403 wild-type human kinases and 59 mutant isoforms.

[1] = mouse plasma pharmacokinetics after single oral administration; assay type: in vivo
Procedure: Initial in vivo studies aimed at understanding the pharmacokinetic and pharmacodynamic (PK/PD) relationship and optimizing the dosing regimen were conducted. HC-5404 was quantified from mouse plasma following a single oral administration (PO) at doses ranging from 3 to 100 mg/kg. […] Mouse plasma protein binding (PPB %) was determined to be 95.6%, which enabled us to calculate the free drug plasma exposure across time (FIG. 18).

pPERK in mouse pancreas = assay: pPERK inhibition (PD) in mouse pancreas; assay type: in vivo
Procedure: The PK/PD relationship was evaluated in mouse pancreas, as the pancreas has elevated pPERK activity that makes it suitable for PD analysis. […] At these concentrations, pPERK inhibition was approximately 90% (FIG. 19).

786-O RCC xenograft = 786-O RCC xenograft tumor growth; assay type: in vivo, mouse
Procedure: (§1) Xenograft RCC models were generated as follows: Female NOD.SCID mice (6-8 weeks of age) were injected with A498 RCC cells (5×10^6 cells/mouse), female Balb/c Nude mice (6-8 weeks old) were implanted with 786-O RCC cells (5×10^6 cells/mouse) or Caki-1 RCC cells (6×10^6 cells/mouse), female Athymic Nude-Foxn1nu mice (7-8 weeks of age) were implanted with MFE280 endometrial cells (10×10^6 cells/mouse). Cells were implanted into the flank of animals.
(§2) Once tumor tumors reached volume of typically 150-250 mm^3, animals were randomized by tumor volume into the treatment groups of 8 or 10 animals per group. In the single animal trial with RCC PDX models, only one animal per group was enrolled.
(§3) Body weight and tumor volume were measured twice weekly. Tumor volume was calculated using the formula [tumor volume (mm^3)=π/6×length×width^2] and plotted as means+SEM. The percentage of tumor growth inhibition was calculated at the end of the study using the formula: […], if ΔT>0, ΔT, mean tumor volume of the drug-treated group on the observation day of the study—mean tumor volume of the drug-treated group on initial day of dosing; ΔC, mean tumor volume of the control group on the observation day of the study—mean tumor volume of the control group on initial day of dosing. Regression was calculated using the formula=100×ΔT/Tinitial, if ΔT<0. Animals with >50% regressions were partial responders. Animals with tumor volume of 0 (no measurable tumor) were considered as complete responders, and animals with <50% tumor regression and 30% growth over the baseline were considered as stable disease. Animals with tumors>30% increase over the baseline were considered progressive disease. The % change in body weight was calculated by the formula (body weight on observation day−body weight on initial day)/body weight on initial day×100%.

mouse pancreas = assay: pancreas histology (pancreatic toxicity); assay type: in vivo
Procedure: As PERK inhibition has been associated with pancreatic toxicity, pancreas sections were evaluated from mice treated with 30 mg/kg or 100 mg/kg HC-5404. […] Together, these findings further supported the decision to dose at 30 mg/kg HC-5404 in subsequent in vivo studies.

[2] = system: ASNS, CBS and CTH in 786-O tumors; assay: ASNS, CBS and CTH in 786-O tumors; assay type: in vivo, mouse; settings: HC-5404 treatment (FIG. 29)
Procedure: Samples were put in 500 μL of Novex lysis buffer consisting of 2× Novex Tris-Glycine SDS sample buffer (ThermoFisher LC2676), 1× Phosphatase Inhibitor Cocktail III (Sigma P0044), 1× PhosphataseArrest I (Gbioscience 113P-D), 1×2-mercaptoethanol (Gibco 21985023), 1× Benzonase (EMD Millipore Corp 70746-3), and 1× Protease inhibitor cocktail tablet (Roche/Sigma 11836170001). Samples were homogenized with the Polytron and heated for 10 min at 95 °C. They were then centrifuged at max speed for 10 min and the supernatant was transferred. Protein concentrations of samples were measured using the Pierce 660 nm Protein assay kit (Thermo Scientific 22660) according to the manufacturer's instructions.
Western Blot analysis was performed on the SimpleWestern high-throughput protein analysis platform (ProteinSimple 004-650) according to manufacturer's protocol using a 12-230 kDA Separation Module (ProteinSimple SM-W004) and Total Protein Detection Module (ProteinSimple DM-TP01). Antibodies used were: (Add info for other antibodies used) pPERK (Lilly; 1:50) and PERK (Cell Signaling Technology 5683; 1:200). All protein analytes were normalized to total protein loaded on capillary.
The effect of HC-5404 was further validated in tumors by assessing the response of markers of in vivo PERK inhibition. […]

Caki-1 RCC xenograft = Caki-1 RCC xenograft tumor growth; assay type: in vivo, mouse
Procedure: as §1, §2, §3

[3] = 10 and 30 mg/kg PO BID tested, 28 days (FIG. 36)

Sequence of RIOK2 (Q9BVS4 whole entry, canonical isoform): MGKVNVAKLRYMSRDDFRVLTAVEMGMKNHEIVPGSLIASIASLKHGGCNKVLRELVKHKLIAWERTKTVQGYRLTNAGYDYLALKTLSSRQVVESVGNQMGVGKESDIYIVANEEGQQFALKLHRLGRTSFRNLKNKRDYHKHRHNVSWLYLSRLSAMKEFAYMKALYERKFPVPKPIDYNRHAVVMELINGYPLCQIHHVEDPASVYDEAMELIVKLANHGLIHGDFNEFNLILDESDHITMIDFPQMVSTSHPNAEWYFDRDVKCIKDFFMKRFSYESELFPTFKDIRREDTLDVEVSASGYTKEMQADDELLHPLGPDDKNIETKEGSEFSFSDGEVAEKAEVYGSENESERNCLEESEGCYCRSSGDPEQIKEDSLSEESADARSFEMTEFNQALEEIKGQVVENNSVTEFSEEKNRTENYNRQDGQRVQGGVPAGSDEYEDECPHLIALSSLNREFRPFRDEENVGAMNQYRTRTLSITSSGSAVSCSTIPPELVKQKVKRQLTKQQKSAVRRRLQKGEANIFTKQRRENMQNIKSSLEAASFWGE

Cc1cc(NC(=O)[C@H](O)c2cc(F)cc(F)c2)ccc1-c1cnc(N)c(C(=O)NC(C)C)c1 [HC-5404, (R)-2-amino-5-(4-(2-(3,5-difluorophenyl)-2-hydroxyacetamido)-2-methylphenyl)-N-isopropylnicotinamide]
inhibition of RIOK2 (RIOK2): inhibited
free drug (unbound) plasma exposure at Cmax / 1 h ([1]; PO, 30 mg/kg): 355 nM
concentration at 1 h ([1]; plasma, PO, 30 mg/kg): 3670 ng/mL
concentration at 12 h ([1]; plasma, single PO, 100 mg/kg, read-out: plasma exposure up to 12 h after dosing): > 3200 ng/mL
Tmax ([1]; plasma, single PO, 3 to 100 mg/kg, read-out: time of Cmax): < 1 h
unbound plasma concentration at Cmax ([1]; single PO, 100 mg/kg): 1605 nM
unbound plasma exposure up to 12 h after dosing ([1]; single PO, 100 mg/kg): > 311 nM
average half-life ([1]; single PO, 3 to 100 mg/kg): 2.22 h
dose proportionality of exposure ([1]; single PO, up to 100 mg/kg): Dose-proportional increases in exposure
time until basal pPERK levels restored in pancreas (pPERK in mouse pancreas; 30 mg/kg PO, after dosing): ≤ 12 h
pPERK activity remaining in pancreas (pPERK in mouse pancreas; 100 mg/kg PO, first 12 h): < 20%
inhibition at 30 mg/kg (pPERK in mouse pancreas; Mus musculus, 30 mg/kg PO, 1 h): ~90%
inhibition of p-PERK in pancreas tissue (pPERK in mouse pancreas; PO): time-dependent and dose-dependent inhibition of p-PERK
tumor growth inhibition (786-O RCC xenograft; 30 mg/kg PO BID, 28 days (FIG. 22)): 48%
difference between BID and QD dosing (786-O RCC xenograft; 3, 10, 30 mg/kg BID vs 6, 20, 60 mg/kg QD, PO): not statistically significant
TGI (786-O RCC xenograft; [3]): approximately 52%
TGI % (786-O RCC xenograft; HC-5404 30 mg/kg PO BID, cabozantinib combination study (FIG. 52)): ~ 61%
dose dependence of antitumor efficacy (786-O RCC xenograft; HC-5404 3, 10 and 30 mg/kg PO BID): trend for dose-dependent antitumor efficacy
effect on tumor volume (786-O RCC xenograft; single agent, efficacy arms (FIG. 28)): modest effects on tumor volume
reversibility of histological pancreas changes (mouse pancreas; 100 mg/kg PO BID, two-week washout): reversible with a two-week washout period
histological changes in the pancreas (mouse pancreas; 30 or 100 mg/kg PO BID, three weeks): histological changes in the pancreas only in the 100 mg/kg dose
accumulation of ASNS, CBS and CTH [2]: dose-dependent accumulation of ASNS, CBS and CTH
effect on growth of Caki-1 model (Caki-1 RCC xenograft; [3]): minimal effect
sensitivity of Caki-1 to monotherapy (Caki-1 RCC xenograft; HC-5404 or sunitinib monotherapy, compared with A498 (FIG. 32)): far less sensitive
